From the supplement of paper PMC10307832

Experiments:
Test in all cases: relative viability (nuclei count vs DMSO), 5 days (fraction); higher = more cells survive
[1] = compound: CC(C)(C)c1nc(-c2cccc(NS(=O)(=O)c3c(F)cccc3F)c2F)c(-c2ccnc(N)n2)s1 [Dabrafenib] + CC1(C)CCC(c2ccc(Cl)cc2)=C(CN2CCN(c3ccc(C(=O)NS(=O)(=O)c4ccc(N[C@H](CCN5CCOCC5)CSc5ccccc5)c(S(=O)(=O)C(F)(F)F)c4)cc3)CC2)C1 [Navitoclax] (partner 0.5 µM)
Outline: (§1)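 Nuclei were stained with Hoechst during a one-step fixation (final 0.05% Triton X-100, 1% formaldehyde, 1 ug/ml Hoechst) carried out 5 days after dosing, then counted on 4× images. The cells, lung cancer lines in 1536-well plates, had been dosed by pin tool the day after seeding with one drug alone or a fixed anchor-drug dose plus five library-drug doses (not always all listed) in √10 steps. Relative viability is the nuclei count in treated wells divided by that in vehicle wells, and each value is the median of duplicate plates.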

[2] = compound: NC(=O)c1ccc(N(C(N)=O)c2c(F)cccc2F)nc1-c1ccc(F)cc1F [VX-702] + N=C(N)NC(=N)NCCc1ccccc1 [Phenformin] (partner 250 µM)
Outline: as §1

[3] = compound: CC(C)(C)c1nc(-c2cccc(NS(=O)(=O)c3c(F)cccc3F)c2F)c(-c2ccnc(N)n2)s1 [Dabrafenib] + Nc1nc2[nH]cc(CCc3ccc(C(=O)N[C@@H](CCC(=O)O)C(=O)O)cc3)c2c(=O)[nH]1 [Pemetrexed] (partner 0.2 µM)
Outline: as §1

[4] = compound: CC(C)(C)c1nc(-c2cccc(NS(=O)(=O)c3c(F)cccc3F)c2F)c(-c2ccnc(N)n2)s1 [Dabrafenib] + CC(C)C[C@H](NC(=O)[C@H](Cc1ccccc1)NC(=O)c1cnccn1)B(O)O [Bortezomib] (partner 0.002 µM)
Outline: as §1

Row | Cell Line | relative viability ([1]; first compound 0.003 µM) | relative viability ([1]; first compound 0.009487 µM) | relative viability ([1]; first compound 0.03 µM) | relative viability ([1]; first compound 0.09487 µM) | relative viability ([1]; first compound 0.3 µM) | relative viability ([2]; first compound 0.02 µM) | relative viability ([2]; first compound 0.2 µM) | relative viability ([2]; first compound 0.6325 µM) | relative viability ([2]; first compound 2 µM) | relative viability ([3]; first compound 0.009487 µM) | relative viability ([3]; first compound 0.03 µM) | relative viability ([3]; first compound 0.09487 µM) | relative viability ([3]; first compound 0.3 µM) | relative viability ([4]; first compound 0.003 µM) | relative viability ([4]; first compound 0.009487 µM) | relative viability ([4]; first compound 0.03 µM) | relative viability ([4]; first compound 0.09487 µM) | relative viability ([4]; first compound 0.3 µM) | relative viability ([3]; first compound 0.003 µM)
1 | PC-14 | 1.01 | 0.977 | 1.05 | 1.01 | 1.06 | 0.618 | 0.547 | 0.689 | 0.483 | 0.135 | 0.133 | 0.125 | 0.154 | 0.968 | 0.846 | 0.817 | 0.919 | 1.03 | 
2 | RERF-LC-KJ | 1.21 | 1.21 | 0.902 |  | 1.15 | 0.401 | 0.449 | 0.369 | 0.517 | 0.525 | 0.477 | 0.501 | 0.536 | 1.02 | 1.33 | 1.05 | 1.05 | 1.13 | 0.491
3 | ChaGo-K-1 |  | 0.891 | 0.966 | 0.986 | 1.06 | 0.528 | 0.462 | 0.506 | 0.499 | 0.256 | 0.263 | 0.246 | 0.26 |  | 0.816 | 1.01 | 0.983 | 1.11 | 0.219
4 | H3255 | 0.375 | 0.669 | 0.548 | 0.441 | 0.566 | 0.352 | 0.344 | 0.371 | 0.386 | 0.593 | 0.607 | 0.511 | 0.643 | 0.703 | 0.858 | 0.997 | 0.642 | 1.09 | 0.564
5 | NCI-H1299 | 0.997 | 1.02 | 1.06 | 1.01 | 1.01 |  |  |  |  |  |  |  |  | 0.962 | 0.97 | 1 | 0.993 | 1 | 
6 | NCI-H1563 |  |  |  |  |  | 0.702 | 0.684 | 0.694 | 0.592 | 0.836 | 0.591 | 0.822 | 0.744 | 0.855 | 0.897 | 0.687 | 0.898 | 0.929 | 0.667
7 | SK-MES-1 | 1.22 | 1.22 | 1.2 | 1.04 | 1.17 | 0.678 | 0.663 | 0.725 | 0.73 | 0.952 | 0.915 | 0.86 | 0.742 |  |  |  |  |  | 
8 | NCI-H1648 |  |  |  |  |  |  |  |  |  | 0.781 |  | 0.654 | 0.738 |  |  |  |  |  | 0.746
9 | NCI-H1755 | 0.949 | 0.938 | 0.75 | 0.964 | 0.997 | 0.638 | 0.608 | 0.611 | 0.62 | 0.427 | 0.395 | 0.47 | 0.424 | 0.972 | 0.924 | 0.908 | 0.914 | 0.903 | 0.36
10 | NCI-H1651 | 1.15 | 1.03 | 0.997 | 1.01 | 1.03 | 0.37 | 0.34 | 0.341 | 0.301 | 0.555 | 0.525 | 0.416 | 0.613 | 0.857 | 0.887 | 0.972 | 0.946 | 0.862 | 0.575
11 | NCI-H23 |  | 0.855 | 0.755 | 0.795 | 0.957 | 0.787 | 0.77 | 0.884 | 0.875 | 0.67 | 0.504 | 0.7 | 0.597 |  | 0.95 | 0.861 | 0.643 | 1.07 | 
12 | A549 | 1.09 | 1.26 | 1.28 | 1.18 | 1.2 | 0.128 | 0.19 | 0.154 | 0.137 |  |  |  |  |  |  |  |  |  | 
13 | NCI-H661 |  |  |  |  |  | 0.296 | 0.329 | 0.298 | 0.299 | 0.934 | 0.876 | 0.931 | 0.933 | 0.647 | 0.868 | 0.437 | 0.719 | 0.789 | 0.942
14 | NCI-H650 |  |  |  |  |  | 0.515 |  | 0.44 | 0.524 | 0.938 | 0.846 | 0.522 | 0.464 |  | 0.865 | 0.645 | 0.494 | 0.453 | 
15 | NCI-H2009 | 1.11 | 1.02 | 1.06 | 0.909 | 0.841 | 0.572 | 0.56 | 0.577 | 0.617 | 0.956 | 0.818 | 0.761 | 0.701 | 0.342 | 1.06 | 0.907 | 0.554 | 0.517 | 0.997
16 | LC-2-ad | 0.558 | 0.425 | 0.381 | 0.417 | 0.438 | 0.574 | 0.647 | 0.551 | 0.612 | 0.283 | 0.25 | 0.269 | 0.286 | 1.04 | 1.03 | 0.969 | 0.918 | 1.09 | 0.271
17 | HCC-366 |  | 1.02 | 0.963 | 1.05 | 1.11 | 0.594 | 0.62 | 0.679 | 0.5 | 0.0959 | 0.172 | 0.124 | 0.193 |  | 1.05 | 0.794 | 0.945 | 1.08 | 0.216
